The data set in a line: refractive index (Na D-line) (dimensionless); wn = mass fraction of the nth substance listed. As to conditions: 298.15 K, 101 kPa, Liquid, Standard Abbe refractometry.

Each structure is given as a SMILES string. ± gives the expanded uncertainty stated by the source.

In general, refractive index refers to a measure of how strongly the sample bends light.

Turning to `CN1CCCC1=O` [N-methylpyrrolidone] + O, the refractive index is given as 1.3462 ± 0.0005 (w1 = 0.0958) and 1.3462 ± 0.0005 (w1 = 0.0961).

In the case of `CC#N` [acetonitrile] + O, the refractive index stood at 1.3425 ± 0.0005 (w1 = 0.0473) and 1.3404 ± 0.0005 (w1 = 0.0477).

As for `O=C([O-])[O-].[K+].[K+]` [potassium carbonate] + O, the refractive index (w1 = 0.0475) was 1.3401 ± 0.0005 and the refractive index (w1 = 0.0968) was determined as 1.3378 ± 0.0005.

In the case of `O=C([O-])[O-].[Na+].[Na+]` [sodium carbonate] + O, the refractive index (w1 = 0.0473) came to 1.3426 ± 0.0005 and the refractive index (w1 = 0.097) is 1.3378 ± 0.0005.

The values are drawn from the NIST ThermoML archive (doi:10.1016/j.fluid.2013.09.028).
